Test results: patent US12246008B2, “4-amino or 4-alkoxy-substituted aryl sulfonamide compounds with selective activity in voltage-gated sodium channels” (Merck Sharp & Dohme LLC, priority 2018, dated 2025)
Like-named read-outs stand apart in the source and are kept apart here.

What was measured:
Assay in all cases: Qube automated patch-clamp assay, inhibition of sodium current
Format in all cases: cell-based
[1] = target: T1, human Nav1.7 channels stably expressed in HEK 293 cells (Homo sapiens, UniProt Q15858); conditions: max concentration tested 33750 nM, read-out: NaV1.7 (nM)
T1 construct: expressed in transfected cells; host or cells: HEK 293
T1 sequence (Q15858 whole entry): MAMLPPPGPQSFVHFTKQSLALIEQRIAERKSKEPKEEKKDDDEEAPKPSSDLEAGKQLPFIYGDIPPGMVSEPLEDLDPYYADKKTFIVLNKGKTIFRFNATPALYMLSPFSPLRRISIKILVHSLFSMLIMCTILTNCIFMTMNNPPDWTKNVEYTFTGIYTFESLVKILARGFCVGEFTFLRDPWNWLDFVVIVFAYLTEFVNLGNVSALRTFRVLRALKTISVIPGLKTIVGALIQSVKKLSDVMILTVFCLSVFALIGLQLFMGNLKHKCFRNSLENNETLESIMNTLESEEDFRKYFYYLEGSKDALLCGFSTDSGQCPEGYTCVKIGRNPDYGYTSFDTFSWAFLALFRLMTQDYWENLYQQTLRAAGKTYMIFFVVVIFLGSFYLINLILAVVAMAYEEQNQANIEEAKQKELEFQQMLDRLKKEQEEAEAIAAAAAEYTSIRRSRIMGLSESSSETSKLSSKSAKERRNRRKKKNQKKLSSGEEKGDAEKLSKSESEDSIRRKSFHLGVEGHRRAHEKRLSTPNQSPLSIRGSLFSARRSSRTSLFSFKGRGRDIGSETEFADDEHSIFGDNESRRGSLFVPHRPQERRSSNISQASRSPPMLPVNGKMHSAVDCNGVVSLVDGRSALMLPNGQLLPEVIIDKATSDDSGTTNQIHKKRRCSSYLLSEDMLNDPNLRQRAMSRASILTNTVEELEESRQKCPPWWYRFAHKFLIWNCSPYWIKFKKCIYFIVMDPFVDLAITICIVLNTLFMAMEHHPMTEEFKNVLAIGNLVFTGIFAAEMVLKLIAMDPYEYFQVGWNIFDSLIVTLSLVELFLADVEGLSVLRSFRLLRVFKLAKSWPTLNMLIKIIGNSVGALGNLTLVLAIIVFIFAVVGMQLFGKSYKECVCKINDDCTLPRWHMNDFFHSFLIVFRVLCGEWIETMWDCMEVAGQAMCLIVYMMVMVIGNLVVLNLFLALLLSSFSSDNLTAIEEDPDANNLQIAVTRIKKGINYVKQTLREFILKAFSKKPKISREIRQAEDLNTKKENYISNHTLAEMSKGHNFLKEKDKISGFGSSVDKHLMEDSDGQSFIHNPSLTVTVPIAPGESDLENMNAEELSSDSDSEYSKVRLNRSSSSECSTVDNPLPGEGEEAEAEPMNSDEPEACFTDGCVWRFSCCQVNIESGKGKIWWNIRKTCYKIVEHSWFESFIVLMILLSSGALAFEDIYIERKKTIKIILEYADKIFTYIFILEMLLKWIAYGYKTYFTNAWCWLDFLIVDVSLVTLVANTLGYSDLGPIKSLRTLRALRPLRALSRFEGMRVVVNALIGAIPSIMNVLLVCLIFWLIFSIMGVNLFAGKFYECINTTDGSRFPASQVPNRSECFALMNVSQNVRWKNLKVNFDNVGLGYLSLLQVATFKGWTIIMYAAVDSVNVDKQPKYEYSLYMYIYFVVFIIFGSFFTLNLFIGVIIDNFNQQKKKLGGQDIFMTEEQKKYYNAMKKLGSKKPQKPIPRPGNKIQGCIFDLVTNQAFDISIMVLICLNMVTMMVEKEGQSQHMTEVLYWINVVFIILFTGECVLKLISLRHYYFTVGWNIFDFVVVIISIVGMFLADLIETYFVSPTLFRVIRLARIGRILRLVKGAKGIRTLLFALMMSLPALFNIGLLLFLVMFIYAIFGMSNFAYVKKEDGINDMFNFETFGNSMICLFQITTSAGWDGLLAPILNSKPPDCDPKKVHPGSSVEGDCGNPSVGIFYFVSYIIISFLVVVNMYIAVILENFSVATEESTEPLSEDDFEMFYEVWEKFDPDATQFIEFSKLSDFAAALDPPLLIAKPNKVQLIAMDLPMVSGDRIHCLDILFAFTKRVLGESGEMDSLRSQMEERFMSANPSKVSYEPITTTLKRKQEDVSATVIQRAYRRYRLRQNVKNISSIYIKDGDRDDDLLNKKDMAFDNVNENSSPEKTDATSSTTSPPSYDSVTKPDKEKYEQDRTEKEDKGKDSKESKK
Experimental: (§1) Qube™ Experimental Procedure:
(§2) Compounds were tested on human Nav1.7 and Nav1.6 channels stably expressed in HEK 293 cells. […] Cells were sealed on a planar substrate using the multihole technology. Cells expressing human Nav1.7 channels were held at −75 mV or −80 mV. Cells expressing human Nav1.6 channels were held at −65 mV. A train of 6 consecutive test pulses to −10 mV, preceded by 8 s prepulses to −115 mV, was applied at a frequency of 0.1 Hz before and after compound addition. Cells in each Qchip well were incubated in compound for 5 minutes before measuring inhibition. Peak currents were measured in control conditions and after compound addition. The following recording solutions were used (mM). External Nav1.6: 150 NaCl, 2 CaCl2), 5 KCl, 1 Mg Cl2, 10 HEPES, 12 Dextrose; external Nav1.7: 40 NaCl, 120 NMDG, 1 KCl, 0.5 MgCl2, 5 HEPES, 2.7 CaCl2); internal: 120 CsF, 30 CsCl, 10 EGTA, 5 HEPES, 5 NaF, 2 MgCl2. Compounds were prepared as 10 mM stock solutions in DMSO. 10 point compound titrations were generated using the Echo acoustic liquid handling instrument and glass coated 384 well plates. The final DMSO concentration in the assay was 0.3%. For all electrophysiology experiments, offline analysis was used to determine percent inhibition as a function of drug concentration. IC50 values were determined by fitting to the Hill equation.
(§3) The various compounds in EXAMPLES 1 through 43 and TABLE 2 exemplified above were assayed for activity and selectivity using the foregoing Qube® technique. The results are reported in TABLE 3 in a format expressing the identification of the compound with reference EXAMPLE followed by the observed potency in nM for NaV1.7, NaV1.6 and NaV1.5. NA signifies not applicable and the max concentration tested is 33750 nM.

[2] = target: T2, human Nav1.6 channels stably expressed in HEK 293 cells (Homo sapiens, UniProt Q9UQD0); conditions: holding potential −65 mV; max concentration tested 33750 nM
T2 construct: expressed in transfected cells; host or cells: HEK 293
T2 sequence (Q9UQD0 whole entry): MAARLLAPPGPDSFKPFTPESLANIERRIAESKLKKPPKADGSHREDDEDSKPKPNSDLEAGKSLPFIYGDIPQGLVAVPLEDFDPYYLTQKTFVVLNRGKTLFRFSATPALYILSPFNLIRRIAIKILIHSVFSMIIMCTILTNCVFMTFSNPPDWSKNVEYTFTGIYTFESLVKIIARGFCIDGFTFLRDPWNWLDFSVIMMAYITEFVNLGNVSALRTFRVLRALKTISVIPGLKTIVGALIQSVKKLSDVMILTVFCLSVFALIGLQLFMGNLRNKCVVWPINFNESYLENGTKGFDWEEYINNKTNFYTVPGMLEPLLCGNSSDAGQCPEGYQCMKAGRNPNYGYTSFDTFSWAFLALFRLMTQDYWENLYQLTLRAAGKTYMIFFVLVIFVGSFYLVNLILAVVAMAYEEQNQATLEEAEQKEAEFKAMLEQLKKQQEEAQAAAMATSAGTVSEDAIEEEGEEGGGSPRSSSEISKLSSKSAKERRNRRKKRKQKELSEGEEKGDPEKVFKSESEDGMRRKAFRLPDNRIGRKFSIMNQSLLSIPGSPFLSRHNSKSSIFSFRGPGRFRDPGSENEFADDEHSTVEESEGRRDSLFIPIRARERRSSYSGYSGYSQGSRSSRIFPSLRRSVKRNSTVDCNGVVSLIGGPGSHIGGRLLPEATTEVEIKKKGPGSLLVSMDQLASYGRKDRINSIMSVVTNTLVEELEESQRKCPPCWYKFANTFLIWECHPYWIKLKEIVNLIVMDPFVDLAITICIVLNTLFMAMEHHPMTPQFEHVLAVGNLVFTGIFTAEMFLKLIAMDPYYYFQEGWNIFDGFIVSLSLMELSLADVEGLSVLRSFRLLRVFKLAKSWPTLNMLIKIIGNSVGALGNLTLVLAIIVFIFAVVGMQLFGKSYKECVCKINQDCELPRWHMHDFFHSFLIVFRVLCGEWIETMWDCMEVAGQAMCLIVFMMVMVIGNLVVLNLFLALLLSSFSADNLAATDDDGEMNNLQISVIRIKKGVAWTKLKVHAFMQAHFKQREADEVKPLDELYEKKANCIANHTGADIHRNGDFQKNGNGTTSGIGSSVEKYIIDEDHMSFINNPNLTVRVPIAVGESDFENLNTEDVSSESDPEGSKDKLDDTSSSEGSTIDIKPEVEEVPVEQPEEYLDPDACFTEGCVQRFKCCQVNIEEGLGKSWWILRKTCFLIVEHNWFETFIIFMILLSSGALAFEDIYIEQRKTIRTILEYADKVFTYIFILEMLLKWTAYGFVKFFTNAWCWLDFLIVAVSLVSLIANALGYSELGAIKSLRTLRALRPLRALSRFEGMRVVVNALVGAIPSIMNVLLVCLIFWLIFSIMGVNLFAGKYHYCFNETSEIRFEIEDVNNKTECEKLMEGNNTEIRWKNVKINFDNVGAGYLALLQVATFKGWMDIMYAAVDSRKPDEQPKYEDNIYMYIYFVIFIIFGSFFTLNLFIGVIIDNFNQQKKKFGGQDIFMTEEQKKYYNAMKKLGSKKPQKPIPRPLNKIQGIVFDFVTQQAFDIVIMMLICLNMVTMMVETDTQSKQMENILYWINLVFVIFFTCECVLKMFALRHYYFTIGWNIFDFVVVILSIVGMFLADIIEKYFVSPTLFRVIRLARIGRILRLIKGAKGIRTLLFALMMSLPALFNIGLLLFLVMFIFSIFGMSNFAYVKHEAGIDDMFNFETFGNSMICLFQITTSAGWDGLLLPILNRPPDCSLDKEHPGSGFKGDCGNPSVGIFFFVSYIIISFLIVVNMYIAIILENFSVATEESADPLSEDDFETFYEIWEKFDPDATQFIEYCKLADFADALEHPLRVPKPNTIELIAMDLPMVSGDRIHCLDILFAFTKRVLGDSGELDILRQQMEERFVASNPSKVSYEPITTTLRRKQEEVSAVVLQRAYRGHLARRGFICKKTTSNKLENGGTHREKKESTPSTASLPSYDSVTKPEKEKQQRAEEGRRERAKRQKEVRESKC
Experimental: as §1, §2, §3

NaV1.5 = NaV1.5 (Homo sapiens, UniProt Q14524); conditions: holding potential −80 mV; max concentration tested 33750 nM
Experimental: as §2, §3

[3] = holding potential −75 mV, −75 mV
[4] = holding potential −80 mV, −80 mV

Row | Compound | IC50 [1, 3] | IC50 [2] | IC50 [1, 4] | IC50 (NaV1.5)
1 | C[C@@H](N)[C@H](CNc1ccc(S(=O)(=O)Nc2ncns2)c(F)c1)CC(CCN)C1CC1 (single isomer, unassigned) [Example 19] | 31 nM | > 33800 nM |  | > 33800 nM
2 | C[C@@H](N)[C@@H](CC(C)(C)CCN)C1CCc2cc(S(=O)(=O)Nc3ncns3)c(F)cc2O1 (single isomer, unassigned) [Example 42] |  | > 33800 nM | 306 nM | > 33800 nM
3 | C[C@@H](N)[C@H](CNc1cc(F)c(S(=O)(=O)Nc2ncns2)cc1-c1nccs1)CC(C)(C)CCN [Example 40, 4-(((S)-6-amino-2-((R)-1-aminoethyl)-4,4-dimethylhexyl)amino)-2-fluoro-N-(1,2,4-thiadiazol-5-yl)-5-(thiazol-2-yl)benzenesulfonamide] |  | 11600 nM | 17 nM | > 33800 nM

The next lines start with results.

Row | IC50 [1, 3] | IC50 [2] | IC50 [1, 4] | Compound | IC50 (NaV1.5)
4 | 48 nM | > 33800 nM |  | CCC(N)C[C@@H](CNc1cc(F)c(S(=O)(=O)Nc2ncns2)cc1OC)[C@@H](C)N (stereo partly drawn) [Example 83] | > 33800 nM
5 |  | > 33800 nM | 229 nM | C[C@@H](N)C(CNc1cc(F)c(S(=O)(=O)Nc2ncns2)cc1F)CC1CC2(CC2)CN1 (single isomer, unassigned) [Example 72] | > 33800 nM
